Results: US8114991B2, “Amino-1,3,5-triazines N-substituted with chiral bicyclic radicals, process for their preparation, compositions thereof, and their use as herbicides and plant growth regulators” (Bayer Cropscience AG, priority 2003, dated 2012)

How the values were obtained:
[1] = tested on: harmful plants such as Stellaria media, Lolium multiforum, Amaranthus retroflexus, Sinapis alba, Avena sativa and Setaria viridis; assay: Pre-emergence effect on weeds (greenhouse pot test); type: in vivo; conditions: application rate of 1 kg or less of active ingredient per hectare; scored after 3 to 4 weeks by comparison with untreated controls
Description: Seeds or rhizome pieces of monocotyledonous and dicotyledonous weed plants were placed in sandy loam in plastic pots and covered with soil. The compounds according to the invention, which were formulated in the form of wettable powders or emulsion concentrates, were then applied to the surface of the soil cover as aqueous suspension or emulsion at various dosages with an application rate of 600 to 800 l of water per ha (converted).
After the treatment, the pots were placed into a greenhouse and kept under good growth conditions for the weeds. The plant or emergence damage was scored visually after the test plants have emerged after an experimental time of 3 to 4 weeks by comparison with untreated controls.

[2] = tested on: harmful plants such as Sinapis alba, Echinochloa crus-galli, Lolium multiflorum, Stellaria media, Cyperus iria, Amaranthus retroflexus, Setaria viridis, Avena …; assay: Post-emergence effect on weeds (greenhouse pot test); type: in vivo; conditions: application rate of 2 kg or less of active ingredient per hectare; treated in the three-leaf stage; scored after approx. 3 to 4 weeks by comparison with untreated controls

Row | SMILES | pre-emergence control of harmful plants (plant or emergence damage scored visually) [1] | herbicidal post-emergence activity against harmful plants (scored visually) [2]
1 | Cc1ccc2c(c1)C(Nc1nc(N)nc(C(F)C#N)n1)C(C)C2 (mixture of isomers) [Compound 7.243] | very good pre-emergence control | very good herbicidal post-emergence activity
2 | CCC(F)c1nc(N)nc(NC2c3ccccc3CC2C)n1 (mixture of isomers) [Compound 9.36] | very good pre-emergence control | very good herbicidal post-emergence activity
3 | CC(F)c1nc(N)nc(NC2CCc3ccccc32)n1 (mixture of isomers) [Compound 10.1] | very good pre-emergence control | very good herbicidal post-emergence activity
4 | CCC(F)c1nc(N)nc(N[C@@H]2CCc3ccc(F)cc32)n1 (mixture of isomers) [Compound 10.38] | very good pre-emergence control | very good herbicidal post-emergence activity
5 | CCCC(F)c1nc(N)nc(NC2CCOc3c(C)cc(C)cc32)n1 (mixture of isomers) [Compound 10.67] | very good pre-emergence control | very good herbicidal post-emergence activity
6 | CCC(F)c1nc(N)nc(NC2CCCc3c(C)cc(C)cc32)n1 (mixture of isomers) [Compound 10.68] | very good pre-emergence control | very good herbicidal post-emergence activity
7 | C[C@@H](F)c1nc(N)nc(N[C@@H]2CCc3ccccc32)n1 [Compound 1.1] | very good pre-emergence control | very good herbicidal post-emergence activity
8 | Cc1ccc2c(c1)[C@H](Nc1nc(N)nc([C@@H](C)F)n1)CC2 [Compound 1.2] | very good pre-emergence control | very good herbicidal post-emergence activity
9 | C[C@@H](F)c1nc(N)nc(N[C@@H]2CCc3ccc(F)cc32)n1 [Compound 1.3] | very good pre-emergence control | very good herbicidal post-emergence activity
10 | Cc1cc2c(cc1C)[C@H](Nc1nc(N)nc([C@@H](C)F)n1)CC2 [Compound 1.7] | very good pre-emergence control | very good herbicidal post-emergence activity
11 | C[C@@H](F)c1nc(N)nc(N[C@@H]2CCCc3ccccc32)n1 [Compound 1.11] | very good pre-emergence control | very good herbicidal post-emergence activity
12 | Cc1ccc2c(c1)[C@H](Nc1nc(N)nc([C@@H](C)F)n1)CCC2 [Compound 1.12] | very good pre-emergence control | very good herbicidal post-emergence activity
13 | Cc1cc(C)c2c(c1)[C@H](Nc1nc(N)nc([C@@H](C)F)n1)CCC2 [Compound 1.15] | very good pre-emergence control | very good herbicidal post-emergence activity
14 | Cc1ccc2c(c1)[C@H](Nc1nc(N)nc([C@@H](C)F)n1)CCO2 [Compound 1.21] | very good pre-emergence control | very good herbicidal post-emergence activity
15 | C[C@@H](Cl)c1nc(N)nc(N[C@@H]2CCc3ccccc32)n1 [Compound 1.24] | very good pre-emergence control | very good herbicidal post-emergence activity
16 | C[C@@H](Cl)c1nc(N)nc(N[C@@H]2CCCc3ccccc32)n1 [Compound 1.28] | very good pre-emergence control | very good herbicidal post-emergence activity
17 | C[C@@H](Cl)c1nc(N)nc(N[C@@H]2CCOc3ccccc32)n1 [Compound 1.31] | very good pre-emergence control | very good herbicidal post-emergence activity
18 | Cc1ccc2c(c1C)OCC[C@H]2Nc1nc(N)nc([C@@H](C)F)n1 [Compound 1.66] | very good pre-emergence control | very good herbicidal post-emergence activity

Row | SMILES | pre-emergence control of harmful plants (plant or emergence damage scored visually) [1] | herbicidal post-emergence activity against harmful plants (scored visually) [2]
19 | C[C@@H](F)c1nc(N)nc(N[C@@H]2CCOc3c(F)cccc32)n1 [Compound 1.67] | very good pre-emergence control | very good herbicidal post-emergence activity
20 | CCc1ccc2c(c1)[C@H](Nc1nc(N)nc([C@@H](C)F)n1)CC2 [Compound 1.68] | very good pre-emergence control | very good herbicidal post-emergence activity
21 | COc1ccc2c(c1)[C@H](Nc1nc(N)nc([C@@H](C)F)n1)CC2 [Compound 1.69] | very good pre-emergence control | very good herbicidal post-emergence activity
22 | Cc1ccc2c(c1)[C@H](Nc1nc(N)nc([C@@H](C)F)n1)[C@@H](C)C2 [Compound 2.2] | very good pre-emergence control | very good herbicidal post-emergence activity
23 | C[C@@H](F)c1nc(N)nc(N[C@H]2c3cc(Cl)ccc3C[C@@H]2C)n1 [Compound 2.4] | very good pre-emergence control | very good herbicidal post-emergence activity
24 | C[C@@H](F)c1nc(N)nc(N[C@H]2c3ccccc3CC[C@@H]2C)n1 [Compound 2.11] | very good pre-emergence control | very good herbicidal post-emergence activity
25 | Cc1ccc2c(c1)[C@H](Nc1nc(N)nc([C@@H](C)Cl)n1)[C@@H](C)C2 [Compound 2.25] | very good pre-emergence control | very good herbicidal post-emergence activity
26 | Cc1ccc2c(c1)[C@H](Nc1nc(N)nc([C@@H](C)Cl)n1)[C@@H](C)CC2 [Compound 2.28] | very good pre-emergence control | very good herbicidal post-emergence activity
27 | C[C@H](F)c1nc(N)nc(N[C@@H]2CCc3ccccc32)n1 [Compound 3.1] | very good pre-emergence control | very good herbicidal post-emergence activity
28 | Cc1ccc2c(c1)[C@H](Nc1nc(N)nc([C@H](C)F)n1)CC2 [Compound 3.2] | very good pre-emergence control | very good herbicidal post-emergence activity
29 | Cc1cc2c(cc1C)[C@H](Nc1nc(N)nc([C@H](C)F)n1)CC2 [Compound 3.7] | very good pre-emergence control | very good herbicidal post-emergence activity
30 | C[C@H](F)c1nc(N)nc(N[C@@H]2CCCc3ccccc32)n1 [Compound 3.11] | very good pre-emergence control | very good herbicidal post-emergence activity
31 | Cc1cc(C)c2c(c1)[C@H](Nc1nc(N)nc([C@H](C)F)n1)CCC2 [Compound 3.15] | very good pre-emergence control | very good herbicidal post-emergence activity
32 | C[C@H](F)c1nc(N)nc(N[C@@H]2CCOc3ccccc32)n1 [Compound 3.20] | very good pre-emergence control | very good herbicidal post-emergence activity
33 | C[C@H](Cl)c1nc(N)nc(N[C@@H]2CCc3ccccc32)n1 [Compound 3.24] | very good pre-emergence control | very good herbicidal post-emergence activity
34 | C[C@H](F)c1nc(N)nc(N[C@H]2c3ccccc3C[C@@H]2C)n1 [Compound 4.1] | very good pre-emergence control | very good herbicidal post-emergence activity
35 | Cc1ccc2c(c1)CC(C)C2Nc1nc(N)nc(C(C)F)n1 (stereo not shown) [Compound 4.2] | very good pre-emergence control | very good herbicidal post-emergence activity
